Results on 21 compounds are retold here after US7687486B2, “Selective estrogen receptor modulators” (Florida Agricultural & Mechanical University, priority 2003, dated 2010).

Counter-ions that a name gives are not always drawn.

The test system of one assay is advanced breast cancer.
Test: not given
Particulars: tamoxifen 20 mg/day; cited from earlier work.
In the case of `CC/C(=C(\c1ccccc1)c1ccc(OCCN(C)C)cc1)c1ccccc1` [tamoxifen], the response rate is recorded as 44%.

The same assay, now with this note: toremifene 60 mg/day; cited from earlier work.
Take `CN(C)CCOc1ccc(/C(=C(/CCCl)c2ccccc2)c2ccccc2)cc1` [toremifene]: the response rate was 50%.

Still in this assay, the particulars now being: toremifene 200 mg/day; cited from earlier work.
Consider `CN(C)CCOc1ccc(/C(=C(/CCCl)c2ccccc2)c2ccccc2)cc1` [toremifene], for which the response rate is listed as 48%.

In a further assay the test system is MCF-7 breast cancer cell line. Briefly: MCF-7 breast cancer cell proliferation assay (cell counting after about 72 hours). The format is cell-based, human. The following applies: Table 1, Structure II compounds group; about 72 hours incubation, HCl salts; read-out: IC50 (micromolar scale) MCF-7 breast cancer cell line. On the procedure:
MCF-7 (ATCC HTB-22) cells, purchased from ATCC (Rockville, Md.), were grown in RPMI medium 1640 with 10% FBS (GIBCO, Grand Island, N.Y.) and 1% Antibiotic-Antimycotic (GIBCO, Grand Island, N.Y.) in an incubator (NUAIRE NU-1500, Plymouth, Minn.) with 5% CO2 and 95% air at about 37° Celsius. Cells were grown as monolayer, doubling time is from about 19 to about 24 hours. The stock solution of the test compound was prepared at 1 mg/ml drug concentration. The stock solution was diluted serially to obtain the desired drug concentrations, of from about 20 to about 200 μg/ml. Plates with twelve wells (5 ml capacity/well) were employed for all the experiments. In a typical experiment, each well contained 1×10^5 initial cells and about 100 μl drug solution in a total volume of about 2 ml media. The final concentrations of compounds were from about 0 to about 100 μg/ml in triplicate sample wells. The plates were incubated at 5% CO2 and 37° C. for about 72 hours. After incubation, cells were washed with PBS 1×, treated by 0.5 ml trypsin-EDTA for about 10 minutes and the cells were suspended by adding about 1.5 ml medium. Cells were counted by using a hemacytometer under a microscope. The data was converted to micromolar concentration using the various molecular weights and represent the mean values and standard errors.
Tables 1-4 illustrate the IC50 (50% inhibitory concentration) values of compounds described in this application against the MCF-7 breast cancer cell line.
As to `C[C@]12CC[C@@H]3c4ccc(OCCN5CCCC5)cc4CC[C@H]3[C@@H]1CC[C@@H]2O` [(17β)-3-[2-pyrrolidinylamino]-ethoxy]-]-Δ^1,3,5(10)-estrien-17-ol], the IC50 stood at 10.8 µM.

Turning to `CCN(CC)CCOc1ccc2c(c1)CC[C@@H]1[C@@H]2CC[C@]2(C)[C@@H](O)CC[C@@H]12` [(17β)-3-[2-diethylamino]-ethoxy]-]-Δ^1,3,5(10)-estrien-17-ol], the concentration for half-maximal inhibition (IC50) is 8.7 µM.

Consider `CN(C)CCOc1ccc2c(c1)CC[C@@H]1[C@@H]2CC[C@]2(C)[C@@H](O)CC[C@@H]12` [(17β)-3-[2-dimethylamino]-ethoxy]-Δ^1,3,5(10)-estrien-17-ol], for which the IC50 amounted to 16.2 µM.

`CC/C(=C(\c1ccc(O)cc1)c1ccc(OCCN(C)C)cc1)c1ccccc1` [4-Hydroxytamoxifen HCl salt, Trans-4-Hydroxytamoxifen, reference compound]: the IC50 was found to be 9 µM.

Regarding `C[C@]12CC[C@@H]3c4ccc(OCCN5CCCCC5)cc4CC[C@H]3[C@@H]1CC[C@@H]2O` [(17β)-3-[2-piperidinyl]-ethoxy]-]-Δ^1,3,5(10)-estrien-17-ol], the concentration for half-maximal inhibition (IC50) came out at 4.1 µM.

For the compound `C[C@]12CC[C@@H]3c4ccc(OCCN5CCOCC5)cc4CC[C@H]3[C@@H]1CC[C@@H]2O` [(17β)-3-[2-morpholinyl]-ethoxy]-]-Δ^1,3,5(10)-estrien-17-ol], the half-inhibitory concentration (IC50) amounted to 19.8 µM.

In the case of `CC(C)N(CCOc1ccc2c(c1)CC[C@@H]1[C@@H]2CC[C@]2(C)[C@@H](O)CC[C@@H]12)C(C)C` [(17β)-3-[2-diisopropylamino]-ethoxy]-]-Δ^1,3,5(10)-estrien-17-ol], the half-inhibitory concentration (IC50) was found to be 5.6 µM.

The assay is the same for the next values; noted with them: Table 2, Structure III compounds group; about 72 hours incubation, HCl salts; read-out: IC50 (micromolar scale) MCF-7 breast cancer cell line.
For `C#CC1(O)CCC2C3CCc4cc(OCCN(C(C)C)C(C)C)ccc4C3CCC21C` (stereo not drawn) [3-[2-diisopropylamino]-ethoxy]-]-Δ^1,3,5(10)-estrien-17α-ethynyl-17β-ol], the IC50 stood at 8.3 µM.

`C#CC1(O)CCC2C3CCc4cc(OCCN5CCCCC5)ccc4C3CCC21C` (stereo not drawn) [3-[2-piperidinyl]-ethoxy]-]-Δ^1,3,5(10)-estrien-17α-ethynyl-17β-ol]: the half-inhibitory concentration (IC50) is 6.1 µM.

Take `CC/C(=C(\c1ccc(O)cc1)c1ccc(OCCN(C)C)cc1)c1ccccc1` [4-Hydroxytamoxifen HCl salt, Trans-4-Hydroxytamoxifen, reference compound]: the IC50 stood at 9.5 µM.

Consider “3-[2-pyrrolidinylamino]-ethoxy]-]-Δ^1,3,5(10)-estrien-17α-ethynyl-17βol”, for which the concentration for half-maximal inhibition (IC50) was found to be 6.4 µM.

Regarding `C#CC1(O)CCC2C3CCc4cc(OCCN(C)C)ccc4C3CCC21C` (stereo not drawn) [3-[2-dimethylamino]-ethoxy]-]-Δ^1,3,5(10)-estrien-17α-ethynyl-17β-ol], the half-maximal inhibitory concentration (IC50) came to 9.1 µM.

`C#CC1(O)CCC2C3CCc4cc(OCCN5CCOCC5)ccc4C3CCC21C` (stereo not drawn) [3-[2-morpholinyl]-ethoxy]-]-Δ^1,3,5(10)-estrien-17α-ethynyl-17β-ol]: the IC50 turned out to be 21.5 µM.

On to `C#C[C@]1(O)CC[C@H]2[C@@H]3CCc4cc(OCCN(CC)CC)ccc4[C@H]3CC[C@@]21C` [3-[2-diethylamino]-ethoxy]-]-Δ^1,3,5(10)-estrien-17α-ethynyl-17β-ol], for which the IC50 is 7.3 µM.

The assay is the same for the next values; noted with them: Table 3, Structure IV compounds group; about 72 hours incubation, HCl salts; read-out: IC50 (micromolar scale) MCF-7 breast cancer cell line.
Regarding “3-[2-pyrrolidinylamino]-ethoxy]-]-Δ^1,3,5(10)-estrien-17-one”, the IC50 came to 10.6 µM.

With `CCN(CC)CCOc1ccc2c(c1)CC[C@@H]1[C@@H]2CC[C@]2(C)C(=O)CC[C@@H]12` [3-[2-diethylamino]-ethoxy]-]-Δ^1,3,5(10)-estrien-17-one], the IC50 came out at 7.5 µM.

Take `CN(C)CCOc1ccc2c(c1)CC[C@@H]1[C@@H]2CC[C@]2(C)C(=O)CC[C@@H]12` [3-[2-dimethylamino]-ethoxy]-]-Δ^1,3,5(10)-estrien-17-one]: the concentration for half-maximal inhibition (IC50) came to 37.8 µM.

Turning to `CC/C(=C(\c1ccc(O)cc1)c1ccc(OCCN(C)C)cc1)c1ccccc1` [4-Hydroxytamoxifen HCl salt, Trans-4-Hydroxytamoxifen, reference compound], the IC50 stood at 10.6 µM.

In the case of `C[C@]12CC[C@@H]3c4ccc(OCCN5CCCCC5)cc4CC[C@H]3[C@@H]1CCC2=O` [3-[2-piperidinyl]-ethoxy]-]-Δ^1,3,5(10)-estrien-17-one], the concentration for half-maximal inhibition (IC50) was 5.1 µM.

As for `C[C@]12CC[C@@H]3c4ccc(OCCN5CCOCC5)cc4CC[C@H]3[C@@H]1CCC2=O` [3-[2-morpholinyl]-ethoxy]-]-Δ^1,3,5(10)-estrien-17-one], the concentration for half-maximal inhibition (IC50) was 20.8 µM.

`CC(C)N(CCOc1ccc2c(c1)CC[C@@H]1[C@@H]2CC[C@]2(C)C(=O)CC[C@@H]12)C(C)C` [3-[2-diisopropylamino]-ethoxy]-]-Δ^1,3,5(10)-estrien-17-one]: the IC50 stood at 9.2 µM.

The next assay concerns breast cancer.
Test: not given
Particulars: adjuvant therapy; cited from earlier work.
With `CN(C)CCOc1ccc(/C(=C(/CCCl)c2ccccc2)c2ccccc2)cc1` [toremifene], the “reduction in the recurrence of breast cancer” value is “not found to exhibit a statistically significant reduction in the recurrence of breast cancer”.

As usually defined, the IC50 is the concentration needed to halve the response being measured.
